Ends that are not written are not given here.
Key:
human red blood cells = conditions: 10 mM phosphate buffer saline pH 7.4, 25 °C, 4 h, visual inspection, 0.1% Triton X-100 positive control
Experimental: Compounds were subjected to a hemolysis assay to assess the hemolytic effect on human red blood cells (hRBCs). The blood was obtained from Interregionale Blutspende SRK AG, Bern, Switzerland. 1.5 mL of whole blood was centrifuged at 3000 rpm for 15 minutes at 4 °C. The plasma was discarded, and the hRBC pellet was re-suspended in 5 mL of PBS (pH 7.4) then centrifuged at 3000 rpm for 5 minutes at 4 °C. The washing of hRBC was repeated three times and the remaining pellet was re-suspended in 10 mL of PBS.
The samples were prepared as the initial concentration of 4000 μg mL^−1 in PBS, added to the first well of 96-well microtiter plate (TPP, untreated) and diluted serially by 1/2. […] Controls on each plate included a blank medium control (PBS 100 μL) and a hemolytic activity control (0.1% Triton X-100). 100 μL of hRBC suspension was incubated with 100 μL of each sample in PBS in 96-well plate (Nunc 96-Well Polystyrene Conical Bottom MicroWell Plates). After the plates were incubated for 4 h at room temperature, minimal hemolytic concentration (MHC) was determined by visual inspection of the wells. 100 μL supernatants was carefully pipetted to a flat bottom, clear wells plate (TPP® tissue culture plates, polystyrene).

MRSA = experiment: MIC, broth microdilution; assay type: cell-based, methicillin-resistant Staphylococcus aureus; conditions: Mueller–Hinton medium, 16–20 h at 37 °C, trifluoroacetate salts
Description: (§1) We synthesized the selected 14 GN and 14 GP peptides by solid phase peptide synthesis and evaluated the activity of their HPLC-purified trifluoroacetate salts by determining minimum inhibitory concentrations (MIC) against bacteria by broth microdilution assay in Muller–Hinton medium and minimum hemolysis concentrations (MHC) on human red blood cells by serial dilution in phosphate buffer saline (Table 1).
(§2) To determine the minimal inhibitory concentration (MIC), the broth microdilution method was used. A colony of bacteria was grown in LB (Lysogeny broth) medium overnight at 37 °C. The samples were prepared as stock solutions of 8 mg mL^−1 in H2O, diluted to the initial concentration of 64 or 128 μg mL^−1 in 300 μL Mueller–Hinton (MH) medium, added to the first well of 96-well microtiter plate (TPP, untreated), and diluted serially by 1/2. The concentration of the bacteria was quantified by measuring absorbance at 600 nm and diluted to OD600 = 0.022 in MH medium. The sample solutions (150 μL) were mixed with 4 μL diluted bacterial suspension with a final inoculation of about of 5 × 10^5 CFU. The plates were incubated at 37 °C until satisfactory growth (∼18 h). […] The MIC was defined as the lowest concentration of the peptide dendrimer that inhibited visible growth of the tested bacteria, as detected after treatment with MTT.

E. coli = experiment: MIC, broth microdilution; assay type: cell-based, Escherichia coli; conditions: Mueller–Hinton medium, 16–20 h at 37 °C, trifluoroacetate salts
Description: as §1, §2

P. aeruginosa = experiment: MIC, broth microdilution; assay type: cell-based, Pseudomonas aeruginosa; conditions: Mueller–Hinton medium, 16–20 h at 37 °C, trifluoroacetate salts
Description: as §1, §2

A. baumannii = experiment: MIC, broth microdilution; assay type: cell-based, Acinetobacter baumannii; conditions: Mueller–Hinton medium, 16–20 h at 37 °C, trifluoroacetate salts
Description: as §1, §2

K. pneumoniae NCTC148 = assay type: cell-based, Klebsiella pneumoniae; conditions: MDR Gram-negative strain; Müller–Hinton medium, 16–20 h, 37 °C; two independent experiments in duplicate
Experimental: (§3) To determine the minimal inhibitory concentration (MIC), the broth microdilution method was used. A colony of bacteria was grown in LB (Lysogeny broth) medium overnight at 37 °C. The samples were prepared as stock solutions of 8 mg mL^−1 in H2O, diluted to the initial concentration of 64 or 128 μg mL^−1 in 300 μL Mueller–Hinton (MH) medium, added to the first well of 96-well microtiter plate (TPP, untreated), and diluted serially by 1/2. The concentration of the bacteria was quantified by measuring absorbance at 600 nm and diluted to OD600 = 0.022 in MH medium. The sample solutions (150 μL) were mixed with 4 μL diluted bacterial suspension with a final inoculation of about of 5 × 10^5 CFU. The plates were incubated at 37 °C until satisfactory growth (∼18 h). For each test, two columns of the plate were kept for sterility control (broth only) and growth control (broth with bacterial inoculums, no antibiotics). The MIC was defined as the lowest concentration of the peptide dendrimer that inhibited visible growth of the tested bacteria, as detected after treatment with MTT.

K. pneumoniae (OXA-48) = assay type: cell-based, Klebsiella pneumoniae; conditions: MDR Gram-negative strain; Müller–Hinton medium, 16–20 h, 37 °C; two independent experiments in duplicate
Experimental: as §3

S. maltophilia = assay type: cell-based; conditions: MDR Gram-negative strain; Müller–Hinton medium, 16–20 h, 37 °C; two independent experiments in duplicate
Experimental: as §3

E. cloacae = assay type: cell-based; conditions: MDR Gram-negative strain; Müller–Hinton medium, 16–20 h, 37 °C; two independent experiments in duplicate
Experimental: as §3

S. epidermidis = assay type: cell-based; conditions: MDR Gram-positive strain; Müller–Hinton medium, 16–20 h, 37 °C; two independent experiments in duplicate; in µg/mL
Experimental: as §3

P. aeruginosa ZEM9A = assay type: cell-based; conditions: MDR Gram-negative strain; Müller–Hinton medium, 16–20 h, 37 °C; two independent experiments in duplicate
Experimental: as §3

P. aeruginosa ZEM-1A = assay type: cell-based; conditions: MDR Gram-negative strain; Müller–Hinton medium, 16–20 h, 37 °C; two independent experiments in duplicate
Experimental: as §3

B. cenocepacia = assay type: cell-based; conditions: MDR Gram-negative strain; Müller–Hinton medium, 16–20 h, 37 °C; two independent experiments in duplicate
Experimental: as §3

P. aeruginosa PA14 = experiment: MIC, broth microdilution; assay type: cell-based; conditions: Gram-negative; Müller–Hinton medium, 16–20 h, 37 °C; two independent experiments in duplicate
Experimental: as §3

[1] = system: P. aeruginosa PA14 4.18 (pmrB); experiment: MIC, broth microdilution; assay type: cell-based; conditions: spontaneous mutant, polymyxin B resistant; Müller–Hinton medium, 16–20 h, 37 °C; two independent experiments in duplicate
Experimental: as §3

[2] = system: P. aeruginosa PA14 2P4 (pmrB); experiment: MIC, broth microdilution; assay type: cell-based; conditions: spontaneous mutant, polymyxin B resistant; Müller–Hinton medium, 16–20 h, 37 °C; two independent experiments in duplicate
Experimental: as §3

[3] = system: P. aeruginosa PA14 4.13 (phoQ); experiment: MIC, broth microdilution; assay type: cell-based; conditions: spontaneous mutant, polymyxin B resistant; Müller–Hinton medium, 16–20 h, 37 °C; two independent experiments in duplicate
Experimental: as §3

| Substance | MHC (minimal hemolytic concentration) (human red blood cells) | also measured |
| --- | --- | --- |
| AGRLQKVFKVIAK-NH2 [GN13] | >2000 µg/mL |  |
| AKKVVKKIYKRFQK-NH2 [GP10] | >2000 µg/mL |  |
| AKRIRKLIKKIFKKI-NH2 [GN1] | >2000 µg/mL |  |
| ARKFRRLVKKLR-NH2 [GP11] | >2000 µg/mL |  |
| ARKKWRKRLKKLKI-NH2 [GP9] | >2000 µg/mL |  |
| ARKWRKFLKKI-NH2 [GP7] | >2000 µg/mL |  |
| FLHSIGKAIGRLLR-NH2 [GP3] | 250 µg/mL |  |
| FLKAVKKLIPSLF-NH2 [GP1] | 2000 µg/mL |  |
| GIGAVLNVAKKLL-NH2 [GP4] | >2000 µg/mL |  |
| GNWRKIVHKIKKAG-NH2 [GN12] | >2000 µg/mL |  |
| GRIKRIRKIIHKY-NH2 [GP8] | >2000 µg/mL |  |
| IDKWKAAFKKIKNLF-NH2 [GN3] | 500 µg/mL |  |
| IHKLAKLAKNVL-NH2 [GN14] | >2000 µg/mL |  |
| IRRIRKKIKKIFKKI-NH2 [GN10] | >2000 µg/mL |  |
| KFFRKLKKLVKK-NH2 [GN5] | >2000 µg/mL |  |
| KRIRKWVRRILKKL-NH2 [GN7] | 250 µg/mL |  |
| KRLWKIRQRIAK-NH2 [GP13] | >2000 µg/mL |  |
| KRLWKRIYRLLKK-NH2 [GN9] | 250 µg/mL |  |
| KVARFLKKFFR-NH2 [GP5] | >2000 µg/mL |  |
| LKKLWKRIIKVGR-NH2 [GP6] | >2000 µg/mL |  |
| LNALKKVFQKIH-NH2 [GP14] | >2000 µg/mL |  |
| LNALKKVFQKIRQGL [GN4, ML-generated linear peptide carboxamide from the P. aeruginosa/A. baumannii model] | >2000 µg/mL | MIC MRSA (MRSA): >64 µg/mL; MIC E. coli (E. coli): 4 µg/mL; MIC P. aeruginosa (P. aeruginosa): 32 µg/mL; MIC A. baumannii (A. baumannii): 16 µg/mL |
| LRKARRLLKKLRARL-NH2 [GN11] | >2000 µg/mL |  |
| LRKARRLVKKLA-NH2 [GP12] | >2000 µg/mL |  |
| LRKFWKKIRKFLKKI-NH2 [GN8] | 62.5 µg/mL |  |
| Polymyxin B |  | MIC K. pneumoniae NCTC148 (K. pneumoniae NCTC148): 1 µg/mL; MIC K. pneumoniae (OXA-48) (K. pneumoniae (OXA-48)): 1 µg/mL; MIC S. maltophilia (S. maltophilia): 0.5 µg/mL; MIC E. cloacae (E. cloacae): 1 µg/mL; MIC S. epidermidis (S. epidermidis): 32–64; MIC P. aeruginosa ZEM9A (P. aeruginosa ZEM9A): 4 µg/mL; MIC P. aeruginosa ZEM-1A (P. aeruginosa ZEM-1A): 0.5 µg/mL; MIC B. cenocepacia (B. cenocepacia): > 64 µg/mL; MIC P. aeruginosa PA14 (P. aeruginosa PA14): < 0.5 µg/mL; MIC P. aeruginosa PA14 4.18 (pmrB) [1]: 2 µg/mL; MIC P. aeruginosa PA14 2P4 (pmrB) [2]: 2 µg/mL; MIC P. aeruginosa PA14 4.13 (phoQ) [3]: 1 µg/mL |
| RLRKKWRKLKKLL-NH2 [GN6] | 2000 µg/mL |  |
| RRWKWRRKIKKWL-NH2 [GN2] | 1000 µg/mL |  |
| RWRWPILGRILR-NH2 [GP2] | 500 µg/mL |  |
